Test results: PMC5805707 (Scientific Reports, 2018)

Target: T1, cytochrome bd (Mycobacterium tuberculosis, UniProt L7N662)
T1 construct: gene cydA; native complex in inverted membrane vesicles of strain mc^2 6020
Test: NADH-driven oxygen consumption of inverted membrane vesicles (Clark electrode); maximal inhibition […]
Type: biochemical

T1 sequence (O06139 entry or part of it): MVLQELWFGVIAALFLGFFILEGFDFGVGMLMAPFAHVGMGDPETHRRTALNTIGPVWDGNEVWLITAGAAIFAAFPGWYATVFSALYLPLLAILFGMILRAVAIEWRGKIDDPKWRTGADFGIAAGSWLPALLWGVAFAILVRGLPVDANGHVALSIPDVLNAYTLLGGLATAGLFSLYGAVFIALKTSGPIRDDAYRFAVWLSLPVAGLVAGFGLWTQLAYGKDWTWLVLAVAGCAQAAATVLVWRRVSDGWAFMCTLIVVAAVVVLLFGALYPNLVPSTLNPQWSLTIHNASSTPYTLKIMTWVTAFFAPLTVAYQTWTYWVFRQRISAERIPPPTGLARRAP
T1 sequence (L7N662 entry or part of it): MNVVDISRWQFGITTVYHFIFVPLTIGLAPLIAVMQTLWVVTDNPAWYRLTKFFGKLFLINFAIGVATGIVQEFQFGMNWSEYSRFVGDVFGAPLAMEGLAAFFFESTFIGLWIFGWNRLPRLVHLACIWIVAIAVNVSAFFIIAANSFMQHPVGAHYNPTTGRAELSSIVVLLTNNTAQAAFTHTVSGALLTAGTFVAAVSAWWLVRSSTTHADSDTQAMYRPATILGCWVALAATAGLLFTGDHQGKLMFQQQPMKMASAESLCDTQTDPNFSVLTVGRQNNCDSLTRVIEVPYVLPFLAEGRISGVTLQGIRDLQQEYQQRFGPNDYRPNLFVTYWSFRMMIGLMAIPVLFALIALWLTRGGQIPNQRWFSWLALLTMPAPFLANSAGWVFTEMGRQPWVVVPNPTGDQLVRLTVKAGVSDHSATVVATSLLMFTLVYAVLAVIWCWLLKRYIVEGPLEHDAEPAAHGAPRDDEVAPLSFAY

For `CC(C)=CCC/C(C)=C/CC/C(C)=C/Cc1c(C)[nH]c2ccccc2c1=O` [aurachin D], the IC50 was ~0.4 µM.
